Our source for the Ki values is patent US7517888B2, “A1 adenosine receptor antagonists” (CV Therapeutics, Inc., priority 2004, dated 2009).

Read-outs that look alike come from different tables or passages of the source. Where only a bound is given, the exact number is not on record here.

In assay [1] the target is T1, Hamster-A1 (DDT1 MF-2) (Mesocricetus auratus, UniProt A0A1U8BVR4).
T1 sequence (A0A1U8BVR4 1-326): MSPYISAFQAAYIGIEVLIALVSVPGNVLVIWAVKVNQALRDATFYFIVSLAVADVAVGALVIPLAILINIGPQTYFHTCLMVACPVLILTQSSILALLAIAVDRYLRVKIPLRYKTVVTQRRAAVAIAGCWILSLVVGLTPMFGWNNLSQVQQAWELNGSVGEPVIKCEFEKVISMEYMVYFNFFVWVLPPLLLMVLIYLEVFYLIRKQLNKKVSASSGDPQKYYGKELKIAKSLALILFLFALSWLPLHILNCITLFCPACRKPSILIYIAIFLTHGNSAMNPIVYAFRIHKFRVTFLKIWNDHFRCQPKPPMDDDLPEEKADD
The experiment in a line: Radioligand binding, hamster A1 AdoR, DDT1 MF-2 membranes. Here is the method: (§1) The cDNAs for human A1, A2A, A2B or A3 AdoRs were prepared by RT-PCR from total RNA of human cells or tissues and sequenced on both strands. The expression vector containing each of these cDNAs and a second vector containing a neomycin or puromycin-resistance gene were introduced to HEK-293 or CHO cells by Lipofectin-Plus (Life Technology). Colonies were selected by growing transfected cells in the presence of neomycin or puromycin. Stably transfected cells were maintained in Dulbecco's modified Eagle's medium (DMEM) or F-12 medium with 10% fetal bovine serum, 100 μg/ml penicillin, 100 μg/ml streptomycin and appropriate concentrations of neomycin or puromycin. These stably transfected cells were referred to as HEK-“AdoR” or CHO-“AdoR” depending on the receptors that they express. The cell lines used routinely were CHO-A1, HEK-A2A, HEK-A2B.and CHO-A3 cells. In addition, hamster DDT1 MF-2 cells that express endogenous A1 AdoRs were also used to determine the binding activities of compounds for A1 AdoRs.
(§2) Monolayers of transfected cells or DDT1 MF-2 were washed with phosphate buffered saline (PBS) and harvested in a buffer containing 10 mM HEPES (pH 7.4), 10 mM EDTA and protease inhibitors. The cells were homogenized in polytron for 1 minute at setting 4 and centrifuged at 29000 g for 15 minutes at 4° C. The cell pellets were washed with a buffer containing 10 mM HEPES (pH7.4), 1 mM EDTA and protease inhibitors, and were resuspended in the same buffer supplemented with 10% sucrose. Frozen aliquots were kept at −80° C.
(§3) The affinities of compounds for A1, A2A, A2B or A3 AdoRs were determined in competition studies using radioligands such as ^3H—CPX (A1 antagonist), or ^3H—CCPA (A1 agonist), ^3H-ZM241385 (A2A antagonist) or ^3H-CGS21680 (A2A agonist), ^3H-ZM241385 (A2B antagonist) or ^125I-AB-MECA (A3 agonist) and membranes of corresponding cells. […] The assays were incubated for 60-90 minutes, stopped by filtration onto GF/B filter plates using Packard Harvester and washed four times with ice-cold TM buffer (10 mM Tris, 1 mM MgCl2, pH 7.4). The amounts of radioligands that bound to the GF/B filter plates were determined by scintillation counting. Nonspecific binding were determined in the presence of 1-10 μM of cold ligands. Bmax and KD values were calculated using GraphPad software.

Assay [2] has as its target T2, Human-A2A (HEK-A2A) (Homo sapiens, UniProt P29274).
T2 construct: expressed in transfected cells; host or cells: HEK-293 cells, stably transfected (HEK-A2A)
In words: Radioligand binding, human A2A AdoR, HEK-A2A membranes. The method, then: as §1, §2, §3

The target of assay [3] is T3, Human-A1 (CHO-A1) (Homo sapiens, UniProt P30542).
T3 construct: expressed in transfected cells; host or cells: CHO cells, stably transfected (CHO-A1)
T3 sequence (P30542 1-326): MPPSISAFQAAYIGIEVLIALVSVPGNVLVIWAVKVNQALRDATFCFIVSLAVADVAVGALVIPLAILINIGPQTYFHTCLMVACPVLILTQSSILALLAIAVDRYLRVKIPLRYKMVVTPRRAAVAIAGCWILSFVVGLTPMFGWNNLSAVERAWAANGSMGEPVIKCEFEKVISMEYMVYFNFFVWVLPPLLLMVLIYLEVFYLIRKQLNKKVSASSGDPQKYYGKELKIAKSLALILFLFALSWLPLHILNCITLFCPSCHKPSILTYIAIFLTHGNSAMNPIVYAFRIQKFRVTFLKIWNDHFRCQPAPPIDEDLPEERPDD
The experiment in a line: Radioligand binding, human A1 AdoR, CHO-A1 membranes. Here is the method:
as §1, §2, §3

In assay [4] the target is T4, Human-A2B (HEK-A2B) (Homo sapiens, UniProt P29275).
T4 construct: expressed in transfected cells; host or cells: HEK-293 cells, stably transfected (HEK-A2B)
T4 sequence (P29275 1-332): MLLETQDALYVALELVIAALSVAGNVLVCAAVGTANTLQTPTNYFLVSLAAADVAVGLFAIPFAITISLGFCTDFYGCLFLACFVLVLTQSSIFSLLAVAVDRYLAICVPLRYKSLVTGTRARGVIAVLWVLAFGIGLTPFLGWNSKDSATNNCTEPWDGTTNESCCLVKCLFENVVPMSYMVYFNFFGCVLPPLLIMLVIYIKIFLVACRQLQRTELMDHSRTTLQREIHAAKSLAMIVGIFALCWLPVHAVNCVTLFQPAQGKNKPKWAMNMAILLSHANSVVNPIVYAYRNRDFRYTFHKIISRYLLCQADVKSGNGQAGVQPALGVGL
The experiment in a line: Radioligand binding, human A2B AdoR, HEK-A2B membranes. The method, then:
as §1, §2
[…] The amounts of radioligands that bound to the GF/B filter plates were determined by scintillation counting. Nonspecific binding were determined in the presence of 1-10 μM of cold ligands. Bmax and KD values were calculated using GraphPad software.

The mark [5] stands for this setting: 3H-CPX radioligand, DDT1 MF-2 membranes, read-out: Ki (low) Hamster-A1 DDT1 MF-2.
The mark [6] stands for this setting: 3H-ZM241385 radioligand, HEK-A2A membranes, read-out: Ki (low) Human-A2A HEK-A2A.
Setting [7] is: 3H-CPX radioligand, CHO-A1 membranes, read-out: Ki (low) Human-A1 CHO-A1.
Setting [8] is: 3H-CGS21680 radioligand (footnote c), HEK-A2B membranes, read-out: Ki (low) Human-A2B HEK-A2B.

T2 sequence (P29274 whole entry): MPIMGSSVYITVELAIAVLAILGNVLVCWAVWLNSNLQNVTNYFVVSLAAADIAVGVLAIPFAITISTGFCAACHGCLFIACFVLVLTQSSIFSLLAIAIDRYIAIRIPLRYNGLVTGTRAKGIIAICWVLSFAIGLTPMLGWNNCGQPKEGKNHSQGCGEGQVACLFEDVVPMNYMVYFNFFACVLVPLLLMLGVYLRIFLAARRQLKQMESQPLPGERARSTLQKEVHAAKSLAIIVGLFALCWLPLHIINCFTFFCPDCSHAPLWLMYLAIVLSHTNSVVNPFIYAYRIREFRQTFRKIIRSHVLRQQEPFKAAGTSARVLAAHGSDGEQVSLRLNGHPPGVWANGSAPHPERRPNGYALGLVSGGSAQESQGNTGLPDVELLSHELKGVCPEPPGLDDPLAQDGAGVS

Consider `CCCn1c(-c2ccccc2)nc2c(NC3CCCCC3)ncnc21` [cyclohexyl(8-phenyl-9-propylpurin-6-yl)amine], for which the Ki (in general, a dissociation constant, usually derived from enzyme kinetics or from competition with a known ligand) in assay [1] (setting [5]) is 11 nM; in assay [2] (setting [6]) it was greater than 5000 nM; in assay [3] (setting [7]), 25 nM; in assay [4] (setting [8]) it was greater than 6670 nM.

Regarding `Cn1c(-c2cccnc2)nc2c(NC3CCCC3)ncnc21` [cyclopentyl(9-methyl-8-(3-pyridyl)purin-6-yl)amine], the Ki in assay [1] (setting [5]) was 84 nM; in assay [2] (setting [6]), greater than 5000 nM; in assay [3] (setting [7]) it was 184 nM; in assay [4] (setting [8]) it was greater than 6670 nM.

For the molecule `Cc1cccc(-c2nc3c(NC4CCCC4)ncnc3n2C)c1` [cyclopentyl[9-methyl-8-(3-methylphenyl)purin-6-yl]amine], the Ki in assay [1] (setting [5]) is 2 nM; in assay [2] (setting [6]) it was greater than 5000 nM; in assay [3] (setting [7]) it was 5 nM; in assay [4] (setting [8]), greater than 6670 nM.

In the case of `Cc1ccccc1-c1nc2c(NC3CCCC3)ncnc2n1C` [cyclopentyl[9-methyl-8-(2-methylphenyl)purin-6-yl]amine], the Ki in assay [1] (setting [5]) is 20 nM; in assay [2] (setting [6]), greater than 5000 nM; in assay [3] (setting [7]), 42 nM; in assay [4] (setting [8]), greater than 6670 nM.

On to `CCn1c(-c2ccccc2)nc2c(NC3CCCCC3)ncnc21` [cyclohexyl(9-ethyl-8-phenylpurin-6-yl)amine], for which the inhibition constant Ki in assay [1] (setting [5]) was 4 nM; in assay [2] (setting [6]) it was greater than 5000 nM; in assay [3] (setting [7]), 11 nM; in assay [4] (setting [8]) it was greater than 6670 nM.

For `Cc1ccc(-c2nc3c(NC4CCCC4)ncnc3n2C)cc1` [cyclopentyl[9-methyl-8-(4-methylphenyl)purin-6-yl]amine], the Ki in assay [1] (setting [5]) was 3 nM; in assay [2] (setting [6]), greater than 5000 nM; in assay [3] (setting [7]) it was 5 nM; in assay [4] (setting [8]) it was greater than 6670 nM.

On to `Cn1c(-c2ccc(F)cc2)nc2c(NC3CCCC3)ncnc21` [cyclopentyl[8-(4-fluorophenyl)-9-methylpurin-6-yl]amine], for which the inhibition constant (Ki) was 1 nM in assay [1] (setting [5]), greater than 5000 nM in assay [2] (setting [6]), 5 nM in assay [3] (setting [7]) and greater than 6670 nM in assay [4] (setting [8]).

As to `Cn1c(-c2cccc(Cl)c2)nc2c(NC3CCCC3)ncnc21` [[8-(3-chlorophenyl)-9-methylpurin-6-yl]cyclopentylamine], the Ki was 3 nM in assay [1] (setting [5]), greater than 5000 nM in assay [2] (setting [6]), 5 nM in assay [3] (setting [7]) and greater than 6670 nM in assay [4] (setting [8]).

In the case of `Cn1c(-c2ccc(O)cc2)nc2c(NC3CCCC3)ncnc21` [4-[6-(cyclopentylamino)-9-methylpurin-8-yl]phenol], the Ki was 4 nM in assay [1], greater than 5000 nM in assay [2], 9 nM in assay [3] and greater than 6670 nM in assay [4].

As to `Cn1c(-c2ccccc2)nc2c(NC3CCCCC3)ncnc21` [cyclohexyl(9-methyl-8-phenylpurin-6-yl)amine], the Ki was 1 nM in assay [1] (setting [5]), greater than 5000 nM in assay [2] (setting [6]), 2 nM in assay [3] (setting [7]) and greater than 6670 nM in assay [4] (setting [8]).

Take `COc1ccc(-c2nc3c(NC4CCCC4)ncnc3n2C)cc1` [cyclopentyl[8-(4-methoxyphenyl)-9-methylpurin-6-yl]amine]: the Ki was 22 nM in assay [1] (setting [5]), greater than 5000 nM in assay [2] (setting [6]), 32 nM in assay [3] (setting [7]) and greater than 6670 nM in assay [4] (setting [8]).

As for `Cn1c(-c2ccc(Cl)cc2)nc2c(NC3CCCC3)ncnc21` [[8-(4-chlorophenyl)-9-methylpurin-6-yl]cyclopentylamine], the Ki was 10 nM in assay [1] (setting [5]), greater than 5000 nM in assay [2] (setting [6]), 9 nM in assay [3] (setting [7]) and greater than 6670 nM in assay [4] (setting [8]).
